Experimental data reported in PMC9570088, “Phytochemicals with Chemopreventive Activity Obtained from the Thai Medicinal Plant Mammea siamensis (Miq.) T. Anders.: Isolation and Structure Determination of New Prenylcoumarins with Inhibitory Activity against Aromatase” (International Journal of Molecular Sciences, 2022).
“Also recorded” adds a separate entry of the source.

Biological target: T1, human recombinant aromatase (Homo sapiens, UniProt P11511)
T1 construct: purchased BD Biosciences (Heidelberg, Germany)
T1 sequence (P11511 1-503): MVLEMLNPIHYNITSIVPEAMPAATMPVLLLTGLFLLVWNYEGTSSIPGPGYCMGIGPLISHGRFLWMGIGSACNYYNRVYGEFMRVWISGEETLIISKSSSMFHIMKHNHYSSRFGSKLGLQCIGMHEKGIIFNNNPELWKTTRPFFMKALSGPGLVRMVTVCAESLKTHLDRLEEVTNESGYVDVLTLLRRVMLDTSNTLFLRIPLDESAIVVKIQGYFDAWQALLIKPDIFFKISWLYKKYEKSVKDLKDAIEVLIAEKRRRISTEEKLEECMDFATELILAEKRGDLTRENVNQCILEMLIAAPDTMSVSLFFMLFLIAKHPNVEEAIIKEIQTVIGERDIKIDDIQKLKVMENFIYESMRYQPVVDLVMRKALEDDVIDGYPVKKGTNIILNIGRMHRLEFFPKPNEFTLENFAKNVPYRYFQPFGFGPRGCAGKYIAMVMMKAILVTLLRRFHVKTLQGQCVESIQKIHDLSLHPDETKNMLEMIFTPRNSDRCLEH
Assay: not given
Parameters: method as in PMID 27373643
Settings: value marked as from earlier report; read-out: IC50 against human recombinant aromatase; cited from earlier work

Compound	IC50 [µM]
CCC(C)C(=O)c1c(O)c(C/C=C(\C)CCC=C(C)C)c(O)c2c([C@H](CC)OC(C)=O)cc(=O)oc12 (stereo partly shown) [compound 16, Surangin B]	9.8
CCC(C)C(=O)c1c(O)c(C/C=C(\C)CCC=C(C)C)c(O)c2c([C@@H](O)CC)cc(=O)oc12 (stereo partly shown) [compound 17, Surangin C]	8.8
CC[C@H](O)c1cc(=O)oc2c(C(=O)CC(C)C)c(O)c(C/C=C(\C)CCC=C(C)C)c(O)c12 [compound 18, Surangin D]	9.8
CCCC(=O)c1c(O)c(CC=C(C)C)c2oc(=O)cc([C@@H](O)CC)c2c1O [compound 20, Kayaessamin E]	14.9
CCC(C)C(=O)c1c(O)c(CC=C(C)C)c2oc(=O)cc([C@@H](O)CC)c2c1O (stereo partly shown) [compound 21, Kayaessamin F]	19.7
CC[C@H](O)c1cc(=O)oc2c(CC=C(C)C)c(O)c(C(=O)CC(C)C)c(O)c12 [compound 22, Kayaessamin G]	27.8
CC(C)=CCc1c(O)c(C(=O)CC(C)C)c(O)c2c(-c3ccccc3)cc(=O)oc12 [compound 24, Mammea A/AA]	6.9
CCC(C)C(=O)c1c(O)c(CC=C(C)C)c2oc(=O)cc(-c3ccccc3)c2c1O (stereo not shown) [compound 25, Mammea A/AB]	8.6
CCCC(=O)c1c(O)c(CC=C(C)C)c2oc(=O)cc(-c3ccccc3)c2c1O [compound 26, Mammea A/AC]	13.7
CC(C)=CCc1c(O)c(C(=O)C(C)C)c(O)c2c(-c3ccccc3)cc(=O)oc12 [compound 27, Mammea A/AD]	11.3
CC(C)CC(=O)c1c2c(c3oc(=O)cc(-c4ccccc4)c3c1O)C=CC(C)(C)O2 [compound 28, Mammea A/AA cyclo D]	7.2
CCC(C)C(=O)c1c2c(c3oc(=O)cc(-c4ccccc4)c3c1O)C=CC(C)(C)O2 (stereo not shown) [compound 29, Mammea A/AB cyclo D]	24.1
CCCC(=O)c1c2c(c3oc(=O)cc(-c4ccccc4)c3c1O)C=CC(C)(C)O2 [compound 30, Mammea A/AC cyclo D]	35
CCCc1cc(=O)oc2c3c(c(C(=O)C(C)CC)c(O)c12)OC(C)(C)C=C3 (stereo not shown) [compound 31, Mammea B/AB cyclo D]	3.1
CCCC(=O)c1c2c(c3oc(=O)cc(CCC)c3c1O)C=CC(C)(C)O2 [compound 32, Mammea B/AC cyclo D]	24.6
CCCC(=O)c1c(O)c2c(c3c(C(CC)OC(C)=O)cc(=O)oc13)OC(C)(C)C=C2 (stereo not shown) [compound 33, Mammea E/BC cyclo D]	11.5
CCCC(=O)c1c(O)c2c(c3c([C@@H](O)CC)cc(=O)oc13)OC(C)(C)C=C2 [compound 35, Deacetylammea E/BC cyclo D]	16.6
CC[C@H](OC(C)=O)c1cc(=O)oc2c(C(=O)CC(C)C)c(O)c(CC=C(C)C)c(O)c12 [compound 36, Mammea E/BA]	16.6
CCC(C)C(=O)c1c(O)c(CC=C(C)C)c(O)c2c(C(CC)OC(C)=O)cc(=O)oc12 (stereo not shown) [compound 37, Mammea E/BB]	18.6

Biological target: T1, human recombinant aromatase
Assay: Kinetic analysis of inhibitory activity against human recombinant aromatase using Lineweaver-Burk plots (testosterone substrate, estradiol EIA)
Assay type: biochemical
Settings: Lineweaver–Burk plots
From the text: In the assay system, we fixed the enzyme concentration, changed the substrate concentration, and obtained the kinetic parameters of the enzyme-catalyzed reaction using Lineweaver–Burk double reciprocal plot 1/[V] vs. 1/[S]. The inhibition constant Ki indicates the potency of an inhibitor and equals the concentration required to produce half-maximal inhibition. The Ki value was obtained from the intersection of the secondary plot with the x-axis (apparent Km/Vmax vs. inhibitor).
Experiments were performed using a previously described protocol, modified by using various concentrations of testosterone (0.4–4 µM) as substrates instead of DBF and the plate was heated at 37 °C for 15 min. After the reaction, the enzyme was inactivated by heating in a boiling water bath for 2 min. An estradiol EIA kit (Oxford Biomedical Research, Inc., Oxford, MI, USA) was used to develop an estradiol standard curve to determine the concentration of estradiol produced and to correlate the concentration of estradiol with the reaction velocity. The mode of inhibition was analyzed using the Lineweaver–Burk plot of the inverse of the reaction velocity of estradiol plotted on the vertical axis and the inverse of the final concentration of the substrate on the horizontal axis, with and without the test substance (Figure S27).

Compound	mode of inhibition of aromatase
CCC(C)C(=O)c1c(O)c(C/C=C(\C)CCC=C(C)C)c(O)c2c([C@H](CC)OC(C)=O)cc(=O)oc12 (stereo partly shown) [compound 16, Surangin B]	competitive inhibition; also recorded: competitive inhibitors
CCC(C)C(=O)c1c(O)c(C/C=C(\C)CCC=C(C)C)c(O)c2c([C@@H](O)CC)cc(=O)oc12 (stereo partly shown) [compound 17, Surangin C]	competitive inhibition; also recorded: competitive inhibitors
CC(C)CC(=O)c1c2c(c3oc(=O)cc(-c4ccccc4)c3c1O)C=CC(C)(C)O2 [compound 28, Mammea A/AA cyclo D]	competitive inhibition; also recorded: competitive inhibitors
CCCc1cc(=O)oc2c3c(c(C(=O)C(C)CC)c(O)c12)OC(C)(C)C=C3 (stereo not shown) [compound 31, Mammea B/AB cyclo D]	competitive inhibitory activity; also recorded: competitive inhibition; also recorded: competitive inhibitors
CCCC(=O)c1c(O)c2c(c3c(C(CC)OC(C)=O)cc(=O)oc13)OC(C)(C)C=C2 (stereo not shown) [compound 33, Mammea E/BC cyclo D]	competitive inhibition; also recorded: competitive inhibitors

Same assay, conditions: testosterone 0.4–4 µM as substrate; secondary plot of Lineweaver–Burk; N = 3

Ki [µM]	Compound
1.3	CCC(C)C(=O)c1c(O)c(C/C=C(\C)CCC=C(C)C)c(O)c2c([C@H](CC)OC(C)=O)cc(=O)oc12 (stereo partly shown) [compound 16, Surangin B]
2.6	CCC(C)C(=O)c1c(O)c(C/C=C(\C)CCC=C(C)C)c(O)c2c([C@@H](O)CC)cc(=O)oc12 (stereo partly shown) [compound 17, Surangin C]
8.1	CCC(C)C(=O)c1c(O)c(CC=C(C)C)c2oc(=O)cc(-c3ccccc3)c2c1O (stereo not shown) [compound 25, Mammea A/AB]
1.2	CC(C)CC(=O)c1c2c(c3oc(=O)cc(-c4ccccc4)c3c1O)C=CC(C)(C)O2 [compound 28, Mammea A/AA cyclo D]
0.84	CCCc1cc(=O)oc2c3c(c(C(=O)C(C)CC)c(O)c12)OC(C)(C)C=C3 (stereo not shown) [compound 31, Mammea B/AB cyclo D]
2.3	CCCC(=O)c1c(O)c2c(c3c(C(CC)OC(C)=O)cc(=O)oc13)OC(C)(C)C=C2 (stereo not shown) [compound 33, Mammea E/BC cyclo D]

Compound	Ki [µM]
CC(C)=CCc1c(O)c(C(=O)CC(C)C)c(O)c2c(-c3ccccc3)cc(=O)oc12 [compound 24, Mammea A/AA]	13.7
